Experiments:
BTK = molecular target: T1, BTK (Homo sapiens, UniProt Q06187); test: Enzymatic assay for BTK (Caliper, peptide substrate); type: biochemical; settings: 5 nM BTK, 100 μM ATP; for IC50: […] peptide substrate, read-out: Enzyme IC50
T1 construct: mixed with 26 μL of purified full length BTK (final concentration of 5 nM); purchased Invitrogen (Carlsbad, Calif.)

BTK-Btn [1] = molecular target: T2, BTK-Btn (Homo sapiens, UniProt Q06187); test: TR-FRET competition binding assay, BTK-Btn with tracer AF647-staur; settings: read-out: FRET IC50, 0.5 nM BTK-Btn, 0.5 nM Eu-strept
T2 sequence (Q06187 whole entry): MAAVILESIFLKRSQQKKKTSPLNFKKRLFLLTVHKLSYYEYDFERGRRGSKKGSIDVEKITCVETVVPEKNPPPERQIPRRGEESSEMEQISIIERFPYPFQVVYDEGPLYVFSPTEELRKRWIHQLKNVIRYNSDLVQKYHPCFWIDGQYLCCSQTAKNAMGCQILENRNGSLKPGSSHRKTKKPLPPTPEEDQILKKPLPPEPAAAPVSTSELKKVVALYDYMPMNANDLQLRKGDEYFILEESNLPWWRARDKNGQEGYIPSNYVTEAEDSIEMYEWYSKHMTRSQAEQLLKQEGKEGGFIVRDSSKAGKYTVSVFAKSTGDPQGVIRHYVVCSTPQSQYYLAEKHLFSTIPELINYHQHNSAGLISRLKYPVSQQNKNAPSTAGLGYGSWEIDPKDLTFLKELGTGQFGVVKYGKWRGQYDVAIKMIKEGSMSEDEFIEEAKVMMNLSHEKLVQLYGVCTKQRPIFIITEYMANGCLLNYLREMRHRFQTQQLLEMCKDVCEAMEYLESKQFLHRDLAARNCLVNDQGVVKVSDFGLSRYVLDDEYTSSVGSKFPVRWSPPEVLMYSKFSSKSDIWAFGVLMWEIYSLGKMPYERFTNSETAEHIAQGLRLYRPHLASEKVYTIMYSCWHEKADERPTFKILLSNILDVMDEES

BTK-Btn [2] = molecular target: T2, BTK-Btn; test: TR-FRET competition binding assay, BTK-Btn with tracer TR 178 (low tracer / low kinase); parameters: 6xHis (N); made in house; host or cells: Sf-9 insect cells (baculovirus)
[3] = 0.05 nM BTK-Btn and 0.5 nM TR 178
[4] = 0.05 nM BTK-Btn and 0.5 nM TR 178, read-out: Low kinase IC50
[5] = 0.05 nM TR 178 and 0.5 nM BTK-Btn
[6] = 0.05 nM TR 178 and 0.5 nM BTK-Btn, read-out: Low tracer IC50

T1 sequence (Q06187 whole entry): as above

Compound | Enzyme nH (hill slope of dose response curve) (BTK) | IC50 (BTK) | IC50 (BTK-Btn [1]) | Low kinase nH (BTK-Btn [2]; [3]) | IC50 (BTK-Btn [2]; [4]) | Low tracer nH (BTK-Btn [2]; [5]) | IC50 (BTK-Btn [2]; [6])
Nc1ncnc2c1ncn2[C@@H]1O[C@H](COP(=O)(O)OP(=O)(O)O)[C@@H](O)[C@H]1O [ADP] | 1.0 ± 0.1 | > 100 µM | 46 ± 7 µM | 0.9 ± 0.1 | 200 ± 40 µM | 0.7 ± 0.2 | 40 ± 11 µM
CC(O)=C(C#N)C(=O)Nc1cc(Br)ccc1Br [LFM-A13, alpha-cyano-beta-hydroxy-beta-methyl-N-(2,5-dibromophenyl)propenamide] | 1.1 ± 0.1 |  |  | 1.3 ± 0.1 |  | 0.6 ± 0.2 | 
CC(C)(C)n1nc(-c2ccc(Cl)cc2)c2c(N)ncnc21 [PP2] | 1.1 ± 0.1 |  |  | 1.8 ± 0.1 |  | 0.9 ± 0.1 | 
N#CC(C#N)=Cc1cc(O)c(O)c(O)c1 [Tyrphostin 25] | 0.6 ± 0.1 | > 100 µM | 48 ± 15 µM | 0.8 ± 0.1 | 130 ± 10 µM | 0.6 ± 0.2 | 45 ± 9 µM
